In patent publication US10899795B2, “Modified epitopes for boosting CD4+ T-cell responses” (Katholieke Universiteit Leuven, priority 2012, dated 2021):

Tested on: hemagglutinin-loaded dendritic cells
Type: cell-based, C57BL/6 mice

## CLAI YSTVASSLV LLV [SEQ ID NO:9]
  lysis of hemagglutinin-loaded dendritic cells (51Cr release): significant lysis
